Results reported in PubChem BioAssay AID224 (DTP/NCI, 2004).
Several values for one entry are separate records, joined by “and”; a condition that tells them apart may be missing. Identical values can stand only once. Toxic doses and inconclusive results are not listed.

Test system: P335 leukemia ip, BDF1 mice, survival T/C %
Assay: NCI In Vivo Anticancer Drug Screen. Data for tumor model P335 Leukemia (intraperitoneal) in B6D2F1 (BDF1) mice
Details: endpoint: mean survival time, higher = longer survival
Method: The antitumor activity of compounds was measured in mice bearing transplantable tumors. Survival or tumor size were measured and the results are expressed as the measurement made in the treated group (T) divided by the measurement made in the vehicle treated control group (C). The tumor model used in this assay is P335 Leukemia (intraperitoneal) in B6D2F1 (BDF1) mice

[1] = dose: 0.31 mg/kg/injection, schedule: Q01DX Z (ip), vehicle: carboxymethylcellulose (CMC)
[2] = dose: 1.25 mg/kg/injection, schedule: Q01DX Z (ip), vehicle: carboxymethylcellulose (CMC)
[3] = dose: 0.8 mg/kg/injection, schedule: Q01DX Z (ip), vehicle: carboxymethylcellulose (CMC)
[4] = dose: 25.0 mg/kg/injection, schedule: Q01DX Z (ip), vehicle: saline
[5] = dose: 8.0 mg/kg/injection, schedule: Q01DX Z (ip), vehicle: carboxymethylcellulose (CMC)
[6] = dose: 16.0 mg/kg/injection, schedule: Q01DX Z (ip), vehicle: carboxymethylcellulose (CMC)
[7] = dose: 31.25 mg/kg/injection, schedule: Q01DX Z (ip), vehicle: carboxymethylcellulose (CMC)
[8] = dose: 16.0 mg/kg/injection, schedule: Q01DX Z (sc), vehicle: steriod suspending solution
[9] = dose: 31.0 mg/kg/injection, schedule: Q01DX Z (sc), vehicle: steriod suspending solution
[10] = dose: 62.5 mg/kg/injection, schedule: Q01DX Z (sc), vehicle: steriod suspending solution
[11] = dose: 125.0 mg/kg/injection, schedule: Q01DX Z (sc), vehicle: steriod suspending solution
[12] = dose: 250.0 mg/kg/injection, schedule: Q01DX Z (sc), vehicle: steriod suspending solution
[13] = dose: 500.0 mg/kg/injection, schedule: Q01DX Z (sc), vehicle: steriod suspending solution
[14] = dose: 12.5 mg/kg/injection, schedule: Q01DX Z (ip), vehicle: carboxymethylcellulose (CMC)
[15] = dose: 50.0 mg/kg/injection, schedule: Q01DX Z (ip), vehicle: carboxymethylcellulose (CMC)
[16] = dose: 25.0 mg/kg/injection, schedule: Q01DX Z (ip), vehicle: carboxymethylcellulose (CMC)
[17] = dose: 31.0 mg/kg/injection, schedule: Q01DX Z (ip), vehicle: carboxymethylcellulose (CMC)
[18] = dose: 62.5 mg/kg/injection, schedule: Q01DX Z (ip), vehicle: carboxymethylcellulose (CMC)
[19] = dose: 125.0 mg/kg/injection, schedule: Q01DX Z (ip), vehicle: carboxymethylcellulose (CMC)

Nc1nc(=S)c2ncn(C3OC(CO)C(O)C3O)c2[nH]1 (stereo not drawn)
T/C (dose: 0.16 mg/kg/injection, schedule: Q01DX Z (ip), vehicle: carboxymethylcellulose (CMC)): 93 % of control | T/C [1]: 117 % of control | T/C (dose: 0.63 mg/kg/injection, schedule: Q01DX Z (ip), vehicle: carboxymethylcellulose (CMC)): 90 % of control | T/C [2]: 90 % of control

CCCCn1cnc2c(=S)nc[nH]c21
T/C (dose: 0.4 mg/kg/injection, schedule: Q01DX Z (ip), vehicle: carboxymethylcellulose (CMC)): 89 % of control | T/C [3]: 87 % of control | T/C (dose: 1.6 mg/kg/injection, schedule: Q01DX Z (ip), vehicle: carboxymethylcellulose (CMC)): 87 % of control

CN(N=O)C(=O)NC(C=O)C(O)C(O)C(O)CO (stereo not drawn)
T/C (dose: 6.25 mg/kg/injection, schedule: Q01DX Z (ip), vehicle: saline): 96 % of control | T/C (dose: 12.5 mg/kg/injection, schedule: Q01DX Z (ip), vehicle: saline): 112 % of control | T/C [4]: 113 % of control | T/C (dose: 100.0 mg/kg/injection, schedule: Q01DX Z (ip), vehicle: saline): 151 % of control

c1ccc(CNc2ncnc3[nH]ncc23)cc1
T/C (dose: 4.0 mg/kg/injection, schedule: Q01DX Z (ip), vehicle: carboxymethylcellulose (CMC)): 89 % of control | T/C [5]: 90 % of control | T/C [6]: 95 % of control | T/C [7]: 101 % of control

CC[C@H](c1ccc(O)cc1)[C@@H](CC)c1ccc(O)cc1
T/C (dose: 0.5 mg/kg/injection, schedule: Q01DX Z (sc), vehicle: steriod suspending solution): 103 % of control | T/C (dose: 1.0 mg/kg/injection, schedule: Q01DX Z (sc), vehicle: steriod suspending solution): 108 % of control | T/C (dose: 2.0 mg/kg/injection, schedule: Q01DX Z (sc), vehicle: steriod suspending solution): 115 % of control and 116 % of control | T/C (dose: 4.0 mg/kg/injection, schedule: Q01DX Z (sc), vehicle: steriod suspending solution): 114 % of control | T/C (dose: 8.0 mg/kg/injection, schedule: Q01DX Z (sc), vehicle: steriod suspending solution): 122 % of control | T/C [8]: 111 % of control | T/C [9]: 105 % of control | T/C [10]: 103 % of control and 111 % of control | T/C [11]: 103 % of control | T/C [12]: 106 % of control | T/C [13]: 97 % of control

N=[N+]=CC(=O)OCC(N)C(=O)O (stereo not drawn)
T/C (dose: 1.18 mg/kg/injection, schedule: Q01DX Z (ip), vehicle: saline): 101 % of control | T/C (dose: 2.35 mg/kg/injection, schedule: Q01DX Z (ip), vehicle: saline): 122 % of control | T/C (dose: 4.69 mg/kg/injection, schedule: Q01DX Z (ip), vehicle: saline): 122 % of control | T/C [4]: 106 % of control | T/C (dose: 50.0 mg/kg/injection, schedule: Q01DX Z (ip), vehicle: saline): 94 % of control

CC[C@]1(O)C[C@H]2CN(CCc3c([nH]c4ccccc34)[C@@](C(=O)OC)(c3cc4c(cc3OC)N(C=O)[C@H]3[C@@](O)(C(=O)OC)[C@H](OC(C)=O)[C@]5(CC)C=CCN6CC[C@]43[C@@H]65)C2)C1
T/C (dose: 0.12 mg/kg/injection, schedule: Q01DX Z (ip), vehicle: water): 234 % of control and 101 % of control and 107 % of control | T/C (dose: 0.5 mg/kg/injection, schedule: Q01DX Z (ip), vehicle: water): 89 % of control and 90 % of control | T/C (dose: 1.0 mg/kg/injection, schedule: Q01DX Z (ip), vehicle: water): 86 % of control

CSc1ncnc2nc[nH]c12
T/C [14]: 96 % of control | T/C [15]: 90 % of control | T/C (dose: 50.0 mg/kg/injection, schedule: Q01DX Z (ip), vehicle: methylcellulose (MC)): 87 % of control

S=c1nc[nH]c2nc[nH]c12
T/C (dose: 37.5 mg/kg/injection, schedule: Q01DX Z (ip), vehicle: other): 116 % of control | T/C (dose: 75.0 mg/kg/injection, schedule: Q01DX Z (ip), vehicle: other): 114 % of control | T/C (dose: 300.0 mg/kg/injection, schedule: Q01DX Z (ip), vehicle: other): 122 % of control

O=C(Nc1ccc(C2=NCCN2)cc1)c1ccc(C(=O)Nc2ccc(C3=NCCN3)cc2)cc1
T/C [16]: 112 % of control | T/C [15]: 93 % of control | T/C (dose: 100.0 mg/kg/injection, schedule: Q01DX Z (ip), vehicle: carboxymethylcellulose (CMC)): 112 % of control | T/C (dose: 200.0 mg/kg/injection, schedule: Q01DX Z (ip), vehicle: carboxymethylcellulose (CMC)): 179 % of control

Nc1nc(N)c2nc(CNc3ccc(C(=O)NC(CCC(=O)O)C(=O)O)cc3)cnc2n1 (stereo not drawn)
T/C (dose: 16.0 micrograms/kg/injection, schedule: Q01DX Z (ip), vehicle: alkali diluted with saline): 96 % of control | T/C (dose: 31.0 micrograms/kg/injection, schedule: Q01DX Z (ip), vehicle: alkali diluted with saline): 121 % of control | T/C (dose: 62.0 micrograms/kg/injection, schedule: Q01DX Z (ip), vehicle: alkali diluted with saline): 169 % of control | T/C (dose: 63.0 micrograms/kg/injection, schedule: Q01DX Z (ip), vehicle: alkali diluted with saline): 96 % of control | T/C (dose: 250.0 micrograms/kg/injection, schedule: Q01DX Z (ip), vehicle: alkali diluted with saline): 98 % of control

O=CCC(O)C(O)C(O)CO (stereo not drawn)
T/C [3]: 104 % of control | T/C [6]: 100 % of control | T/C [17]: 93 % of control | T/C [18]: 114 % of control | T/C [19]: 104 % of control

CC(=O)N(C)C
T/C (dose: 250.0 mg/kg/injection, schedule: Q01DX Z (ip), vehicle: saline): 95 % of control | T/C (dose: 500.0 mg/kg/injection, schedule: Q01DX Z (ip), vehicle: saline): 110 % of control | T/C (dose: 1000.0 mg/kg/injection, schedule: Q01DX Z (ip), vehicle: saline): 92 % of control | T/C (dose: 2000.0 mg/kg/injection, schedule: Q01DX Z (ip), vehicle: saline): 90 % of control

S=P(N1CCOCC1)(N1CC1)N1CC1
T/C [14]: 101 % of control | T/C [16]: 93 % of control

N#[N+]c1cnc([O-])[nH]c1=O
T/C [1]: 96 % of control | T/C (dose: 0.62 mg/kg/injection, schedule: Q01DX Z (ip), vehicle: carboxymethylcellulose (CMC)): 123 % of control | T/C [2]: 103 % of control | T/C (dose: 5.0 mg/kg/injection, schedule: Q01DX Z (ip), vehicle: carboxymethylcellulose (CMC)): 124 % of control | T/C (dose: 10.0 mg/kg/injection, schedule: Q01DX Z (ip), vehicle: carboxymethylcellulose (CMC)): 103 % of control and 104 % of control and 110 % of control

C[C@]12CCC(=O)C=C1CC[C@@H]1[C@@H]2C(=O)C[C@@]2(C)[C@H]1CC[C@]2(O)C(=O)CO
T/C (dose: 3.9 mg/kg/injection, schedule: Q01DX Z (sc), vehicle: steriod suspending solution): 111 % of control | T/C (dose: 31.25 mg/kg/injection, schedule: Q01DX Z (sc), vehicle: steriod suspending solution): 101 % of control | T/C [12]: 94 % of control

COc1cc2c(c(OC)c1OC)-c1ccc(OC)c(=O)cc1[C@@H](NC(C)=O)CC2
T/C (dose: 63.0 micrograms/kg/injection, schedule: Q01DX Z (ip), vehicle: saline): 104 % of control | T/C (dose: 125.0 micrograms/kg/injection, schedule: Q01DX Z (ip), vehicle: saline): 101 % of control | T/C (dose: 250.0 micrograms/kg/injection, schedule: Q01DX Z (ip), vehicle: saline): 104 % of control

C[C@]12CCC(=O)C[C@H]1CC[C@@H]1[C@@H]2CC[C@@]2(C)[C@H]1CC[C@]2(C)O
T/C [8]: 106 % of control | T/C [9]: 93 % of control | T/C [10]: 98 % of control and 111 % of control | T/C [11]: 111 % of control | T/C [12]: 109 % of control | T/C [13]: 109 % of control | T/C (dose: 1000.0 mg/kg/injection, schedule: Q01DX Z (sc), vehicle: steriod suspending solution): 98 % of control

C[C@]12CC[C@H](OC3OC(CO)C(O)C(O)C3O)C[C@H]1CC[C@@H]1[C@@H]2CC[C@]2(C)[C@@H](C3=CCOC3=O)CC[C@]12O (stereo partly drawn)
T/C (dose: 0.04 mg/kg/injection, schedule: Q01DX Z (ip), vehicle: saline): 97 % of control | T/C (dose: 0.08 mg/kg/injection, schedule: Q01DX Z (ip), vehicle: saline): 96 % of control | T/C (dose: 0.16 mg/kg/injection, schedule: Q01DX Z (ip), vehicle: saline): 92 % of control | T/C (dose: 0.31 mg/kg/injection, schedule: Q01DX Z (ip), vehicle: saline): 86 % of control

Clc1ncnc2nc[nH]c12
T/C [5]: 89 % of control | T/C [6]: 101 % of control | T/C [17]: 89 % of control | T/C [7]: 110 % of control | T/C [18]: 101 % of control | T/C [19]: 110 % of control
